Results taken from patent publication US7081448B2, “Benzyllactobionamides as inhibitors of smooth muscle cell proliferation” (Wyeth, priority 1998, dated 2006).

System: Porcine Smooth Muscle Cell
Assay: Effects of compounds on cell proliferation using 3H thymidine incorporation
Type: cell-based
Conditions: porcine smooth muscle cells, serum/growth factor stimulated; for IC50: 24–36 h, read-out: Porcine Smooth Muscle Cell Antiproliferation IC50; for Porcine Smooth Muscle Cell Antiproliferation, percent inhibition: @ 500 μM
Protocol: The compounds of this invention are useful as antiproliferative agents. The following procedures show the evaluation of representative compounds of this invention in standard pharmacological test procedure which measured ability of the evaluated compound to inhibit smooth muscle cell proliferation
Effects of Compounds on Cell Proliferation Using ^3H Thymidine Incorporation
Human and porcine smooth muscle cells were tested in early passage (generally passage 3–7) at sub-confluent conditions. Cultures were grown in 16 mm (24 well) multi-well culture dishes in medium 199 supplemented with 10% fetal bovine serum and 2% antibiotic/antimycotic. At sub-confluence, the cells were placed in a defined serum free medium (AIM-V; Gibco) for 24–48 h prior to initiating the experimental protocol. […] Compounds were added to each well at 50 fold dilution (20 μL/well) and the plates were incubated for 24–36 h at 37° C. in 5% CO2. Compounds were initially dissolved in 50% ethanol and serially diluted into media. Compounds were routinely evaluated at concentrations from 1 to 100 μM. As a control, grade II porcine intestinal mucosal heparin (sodium salt) was routinely evaluated in all cell preparations at concentrations from 0.1 to 100 μg/mL. At the completion of the test procedure, plates were placed on ice, washed three times with ice cold phosphate buffered saline (PBS) and incubated in ice cold 10% trichloroacetic acid (TCA) got 30 min to remove acid soluble proteins. Solution was transferred to scintillation vials containing 0.4 N HCl (500 μL/vial to neutralize NaOH) and each well was rinsed two times with water (500 μL) for a total volume of 2 mL/vial. Data was obtained, in triplicate, for both control and experimental samples. Control (100%) data was obtained from maximally stimulated cells, as the result of growth factor or serum stimulation. Experimental data was obtained from cells maximally stimulated with growth factor or serum and treated with compound. Data are expressed as an IC50 or percent inhibition in Table I below.

Row | Compound | IC50 [µM] | Porcine Smooth Muscle Cell Antiproliferation, percent inhibition [% @ 500]
1 | N-[3-(Acetylamino)-benzyl]-octa-O-sulfo-lactobionamide Octasodium Salt [Example 7] | 122 | –
2 | CC(=O)OC[C@H]1O[C@@H](O[C@@H]([C@H](OC(C)=O)[C@@H](OC(C)=O)C(=O)NCc2cccc(N)c2)[C@@H](COC(C)=O)OC(C)=O)[C@H](OC(C)=O)[C@@H](OC(C)=O)[C@H]1OC(C)=O [Example 5, N-(3-Amino-benzyl)-octa-O-acetyl-lactobionamide] | – | 12
3 | CC(=O)OC[C@H]1O[C@@H](O[C@@H]([C@H](OC(C)=O)[C@@H](OC(C)=O)C(=O)NCc2ccccc2)[C@@H](COC(C)=O)OC(C)=O)[C@H](OC(C)=O)[C@@H](OC(C)=O)[C@H]1OC(C)=O [Example 1, N-Benzyl-octa-O-acetyl-lactobionamide] | 118 | –
4 | N-Benzyl-octa-O-sulfo-lactobionamide Octasodium Salt [Example 2] | – | 45
5 | CC(=O)OC[C@H]1O[C@@H](O[C@@H]([C@H](OC(C)=O)[C@@H](OC(C)=O)C(=O)NCc2ccc(N)cc2)[C@@H](COC(C)=O)OC(C)=O)[C@H](OC(C)=O)[C@@H](OC(C)=O)[C@H]1OC(C)=O [Example 4, N-(4-Amino-benzyl)-octa-O-acetyl-lactobionamide] | – | 30
